Laboratory results taken from patent US4963541A, “Pyrimido-pyrimidine lipoxygenase inhibiting compounds” (Abbott Laboratories, priority 1989, dated 1990).
pIC50: −log10 of the molar value.

Experiments:
[1] = Drugs of the Future, 8, 1023, 1983; cited from earlier work
tumor cell growth = settings: in rats; Ger. Offen. 2931, 573; cited from earlier work
5-lipoxygenase [2] = target: T1, 5-lipoxygenase (Rattus norvegicus, UniProt P12527); test: Inhibition of 5-lipoxygenase activity (20,000x g supernatant from homogenized RBL-1 cells); type: biochemical; settings: In vitro, 20,000x g supernatant from homogenized RBL-1 cells
T1 construct: 20,000x g supernatant from homogenized RBL-1 cells; endogenous in cells; host or cells: RBL-1 cells (20,000x g supernatant of homogenate)
T1 sequence (P12527 1-673): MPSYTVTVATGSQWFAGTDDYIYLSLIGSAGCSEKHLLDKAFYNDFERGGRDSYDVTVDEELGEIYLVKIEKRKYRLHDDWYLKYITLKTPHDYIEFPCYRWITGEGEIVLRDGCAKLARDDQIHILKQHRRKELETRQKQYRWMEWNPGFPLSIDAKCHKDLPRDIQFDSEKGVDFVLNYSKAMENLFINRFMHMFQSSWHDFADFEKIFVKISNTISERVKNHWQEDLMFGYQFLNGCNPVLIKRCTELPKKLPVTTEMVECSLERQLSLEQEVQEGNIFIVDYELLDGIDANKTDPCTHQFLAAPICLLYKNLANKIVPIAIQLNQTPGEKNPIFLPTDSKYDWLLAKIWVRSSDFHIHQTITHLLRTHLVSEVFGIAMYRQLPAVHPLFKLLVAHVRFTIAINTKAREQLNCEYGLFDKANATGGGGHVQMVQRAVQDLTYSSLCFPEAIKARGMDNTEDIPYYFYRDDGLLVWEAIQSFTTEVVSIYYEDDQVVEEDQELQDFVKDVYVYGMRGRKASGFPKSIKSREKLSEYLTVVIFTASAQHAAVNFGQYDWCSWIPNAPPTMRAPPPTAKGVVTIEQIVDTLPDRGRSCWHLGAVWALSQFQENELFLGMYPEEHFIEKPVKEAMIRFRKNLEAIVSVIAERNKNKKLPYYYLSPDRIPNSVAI
Description: Inhibition of 5-lipoxygenase activity was determined using the 20,000x g supernatant from homogenized RBL-1 cells in a similar manner as that described by Dyer and coworkers (Dyer, R.D.; Haviv, F,; Hanel, A. M.; Bornemier, D. A.; Carter, G. W. Fed. Proc., Fed. Am. Soc. Exp. Biol. 1984, 43, 1462A). IC50 values (concentration of compound producing 50% enzyme inhibition) were calculated by linear regression analysis of percentage inhibition versus log inhibitor concentration plots.

5-lipoxygenase [3] = settings: Young, Dyer, Carter, Federation Proceedings 44(4):904, 1985; cited from earlier work

SMILES	pIC50 (5-lipoxygenase [2])	other results
CCN(CC)c1nc(N(CCO)CCOC)nc2c(N(CC)CC)nc(N(CCO)CCOC)nc12 [2,6-bis-(2-hydroxyethyl-2-methoxyethylamino)-4,8-bis-(diethylamino)pyrimido[5,4-d]pyrimidine]	–	reported to be a hypertensive agent [1]: hypertensive agent
OCCN(CCO)c1nc(N2CCCCC2)c2nc(N(CCO)CCO)ncc2n1 [2,6-bis-(diethanolamino)-4-piperidinopyrimido[5,4d]pyridimine]	–	inhibit tumor cell growth (tumor cell growth): shown to inhibit tumor cell growth in rats
CN(CCO)c1nc(N2CCCCC2)c2nc(N(C)CCO)nc(N3CCCCC3)c2n1 [Example 1, 2,6-bis-2-(Methylamino)ethanol-4,8-bis-N-piperidinopyrimido[5,4-d]pyrimidine]	6.47	–
OCCNc1nc(N2CCCCC2)c2nc(NCCO)nc(N3CCCCC3)c2n1 [Example 2, 2,6-bis-Aminoethanol-4,8-bis-N-piperidinopyrimido[5,4-d]pyrimidine]	5.54	–
CN(CCO)c1nc(N2CCCCCC2)c2nc(N(C)CCO)nc(N3CCCCCC3)c2n1 [Example 3, 2,6-bis-2-(Methylamino)ethanol-4,8-bis-N-perhydroazepinepyrimido-[5,4-d]pyrimidine]	6.52	–
CN(CCO)c1nc(N2CCCCCCC2)c2nc(N(C)CCO)nc(N3CCCCCCC3)c2n1 [Example 4, 2,6-bis-2-(Methylamino)ethanol-4,8-bis-N-perhydroazocinepyrimido[5,4-d]pyrimidine]	6.04	–
OCCN(CCO)c1nc(N2CCCCC2)c2nc(N(CCO)CCO)nc(N3CCCCC3)c2n1 [dipyridamole, 2,6-bis-(diethanolamino)-4,8-dipiperidinopyrimido[5,4-d]pyrimidine]	–	reported to be an inhibitor of 5-lipoxygenase (5-lipoxygenase [3]): inhibitor of 5-lipoxygenase
